From patent publication US10722527B2, “Abiraterone acetate lipid formulations” (Capsugel Belgium NV, priority 2015, dated 2020) come the findings set out here.

Like-named read-outs stand apart in the source and are kept apart here.

The data set is described as follows: Equilibrium solubility of crystalline active in digestion medium / digested placebo LMP formulation. The conditions noted are these: 37 °C, thermodynamic from solid. Type of data set: physicochemical. The protocol: In both cases, the majority of the active was solubilized in a lipid phase that phase-separated on centrifugation of the samples and most likely consisting of larger lipophilic colloids including multi-lamellar vesicles. Active drug in the aqueous phase (consisting of BS/PL mixed-micelles, lipid-enriched BS/PL mixed micelles and small vesicles) is considered the most readily available form for absorption.
In vitro digestion tests were performed as follows: 1 g of the active-containing formulation was dispersed in 40 mL fasted intestinal medium (2 mM Tris-maleate, 1.4 mM CaCl2.2H2O, and 150 mM NaCl, 3 mM sodium taurodeoxycholate and 0.75 mM phosphatidylcholine, 37° C.) using a pH-stat titrator as described by the LFCS Consortium (Williams, H D. et al., J. Pharm. Sci. 101 (2012), p. 3360-3380). […] Active concentration in the aqueous phase was measured by HPLC. […] Also thermodynamic solubility of the active was evaluated in digested placebo formulations for determining solubility in digested lipidic colloidal phases.

For `CC(=O)O[C@H]1CC[C@@]2(C)C(=CC[C@@H]3[C@@H]2CC[C@]2(C)C(c4cccnc4)=CC[C@@H]32)C1` [Abiraterone acetate], the solubility thermodynamic stood at 121 µg/mL (pH 6.5, aqueous with cosolvent or surfactant or cyclodextrin, digested placebo LMP formulation, read-out: Equilibrium solubility of crystalline active in digested LMP formulations) and 27 µg/mL (pH 6.5, fassif, same fasted intestinal medium, without digested lipid formulation, read-out: Equilibrium solubility of the crystalline active in digestion medium).
